# Legend:
# [1] = target: Cyclin-dependent kinase 5 (Homo sapiens, UniProt Q00535); assay: Inhibition of human recombinant Cdk5/p35 by FRET assay
# [2] = target: Casein kinase I isoform epsilon (Homo sapiens, UniProt P49674); assay: Inhibition of human recombinant CK1epsilon by FRET assay
# [3] = target: Glycogen synthase kinase-3 alpha (Homo sapiens, UniProt P49840); assay: Inhibition of human recombinant GSK3alpha by FRET assay
# Aurora kinase A = target: T1, Aurora kinase A (Homo sapiens, UniProt O14965); assay: Inhibition of human recombinant AURKA by FRET assay
# T1 sequence (O14965 whole entry): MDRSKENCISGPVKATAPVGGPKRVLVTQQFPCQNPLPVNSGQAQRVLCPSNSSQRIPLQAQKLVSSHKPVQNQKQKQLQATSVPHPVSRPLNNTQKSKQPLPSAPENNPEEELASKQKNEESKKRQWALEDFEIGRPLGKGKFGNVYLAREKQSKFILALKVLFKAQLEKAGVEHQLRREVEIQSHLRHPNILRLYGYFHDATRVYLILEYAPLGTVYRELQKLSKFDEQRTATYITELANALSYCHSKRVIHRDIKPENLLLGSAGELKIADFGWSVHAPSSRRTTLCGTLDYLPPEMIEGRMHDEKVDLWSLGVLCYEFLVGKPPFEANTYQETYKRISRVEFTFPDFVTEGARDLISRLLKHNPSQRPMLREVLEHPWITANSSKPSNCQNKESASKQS
# [4] = target: Protein kinase C alpha type (Homo sapiens, UniProt P17252); assay: Inhibition of human recombinant PKCalpha by FRET assay
# [5] = target: Glycogen synthase kinase-3 beta (Homo sapiens, UniProt P49841); assay: Inhibition of human recombinant GSK3beta by FRET assay
# Chain of Glycogen synthase kinase-3 beta (P49841 whole entry): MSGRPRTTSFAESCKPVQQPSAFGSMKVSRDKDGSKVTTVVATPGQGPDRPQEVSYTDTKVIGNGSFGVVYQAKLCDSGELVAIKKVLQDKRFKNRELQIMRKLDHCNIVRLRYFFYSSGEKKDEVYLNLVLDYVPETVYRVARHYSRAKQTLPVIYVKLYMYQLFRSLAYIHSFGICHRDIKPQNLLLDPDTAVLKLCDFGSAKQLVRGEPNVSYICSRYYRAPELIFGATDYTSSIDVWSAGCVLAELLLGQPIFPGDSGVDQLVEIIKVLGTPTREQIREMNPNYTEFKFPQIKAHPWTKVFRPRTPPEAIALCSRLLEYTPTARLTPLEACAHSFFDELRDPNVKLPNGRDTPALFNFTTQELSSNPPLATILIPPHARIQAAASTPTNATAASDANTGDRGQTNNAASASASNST
# Danio rerio = organism: Danio rerio; assay: Toxicity in wild type zebra fish embryo up to 30 uM; format: organism-based; conditions: zebrafish, in vivo
# Chain of Casein kinase I isoform epsilon (P49674 whole entry, canonical isoform): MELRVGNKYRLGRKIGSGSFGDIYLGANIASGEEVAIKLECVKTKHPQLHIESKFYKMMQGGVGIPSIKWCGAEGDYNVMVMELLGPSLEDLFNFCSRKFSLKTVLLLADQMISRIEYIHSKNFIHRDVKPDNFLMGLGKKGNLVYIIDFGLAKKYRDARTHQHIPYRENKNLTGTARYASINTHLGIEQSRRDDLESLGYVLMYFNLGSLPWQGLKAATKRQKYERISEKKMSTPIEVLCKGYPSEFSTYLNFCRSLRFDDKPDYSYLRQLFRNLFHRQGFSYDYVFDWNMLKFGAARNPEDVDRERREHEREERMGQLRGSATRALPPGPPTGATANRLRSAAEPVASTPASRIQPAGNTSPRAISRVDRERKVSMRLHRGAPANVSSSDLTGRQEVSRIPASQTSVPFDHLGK
# Chain of Glycogen synthase kinase-3 alpha (P49840 whole entry): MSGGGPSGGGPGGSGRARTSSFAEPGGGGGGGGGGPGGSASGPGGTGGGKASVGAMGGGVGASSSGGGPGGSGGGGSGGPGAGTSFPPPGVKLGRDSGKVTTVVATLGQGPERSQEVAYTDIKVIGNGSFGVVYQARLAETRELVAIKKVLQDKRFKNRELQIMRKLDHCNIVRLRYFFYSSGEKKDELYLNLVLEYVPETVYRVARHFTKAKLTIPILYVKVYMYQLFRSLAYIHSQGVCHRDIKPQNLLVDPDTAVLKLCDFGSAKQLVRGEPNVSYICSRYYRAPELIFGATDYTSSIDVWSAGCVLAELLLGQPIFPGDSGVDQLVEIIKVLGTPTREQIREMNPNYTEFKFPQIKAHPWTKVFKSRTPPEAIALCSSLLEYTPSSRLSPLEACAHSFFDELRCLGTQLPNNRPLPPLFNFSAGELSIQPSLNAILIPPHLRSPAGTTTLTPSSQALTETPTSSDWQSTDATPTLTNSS
# Chain of Cyclin-dependent kinase 5 (Q00535 whole entry, canonical isoform): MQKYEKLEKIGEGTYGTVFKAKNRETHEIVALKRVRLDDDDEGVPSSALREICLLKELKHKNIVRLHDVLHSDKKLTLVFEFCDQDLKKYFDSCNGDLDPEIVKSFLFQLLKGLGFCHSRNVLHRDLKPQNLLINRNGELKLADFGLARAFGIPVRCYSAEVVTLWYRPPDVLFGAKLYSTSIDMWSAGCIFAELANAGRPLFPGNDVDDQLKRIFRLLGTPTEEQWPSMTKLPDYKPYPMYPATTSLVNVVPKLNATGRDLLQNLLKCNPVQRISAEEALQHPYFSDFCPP
IC50 [1],IC50 [2],IC50 [3],IC50 (Aurora kinase A),IC50 [4],IC50 [5],SMILES,Activity (Danio rerio)
> 100 µM,> 100 µM,0.077 µM,> 100 µM,> 100 µM,0.153 µM,N#Cc1ccc(-c2ccc(CSc3nnc(-c4ccncc4)o3)cc2)cc1,–
> 100 µM,> 100 µM,0.324 µM,> 100 µM,> 100 µM,0.056 µM,N#Cc1cc(F)ccc1-c1ccc(CSc2nnc(-c3ccncc3)o2)cc1,–
> 100 µM,> 100 µM,0.052 µM,> 100 µM,> 100 µM,0.083 µM,c1ccc(-c2ccc(CSc3nnc(-c4ccncc4)o3)cc2)cc1,–
> 100 µM,> 100 µM,0.02 µM,60 µM,> 100 µM,0.035 µM,CC(=O)Nc1cc(-c2nnc(SCc3ccccc3)o2)ccn1,–
> 100 µM,> 100 µM,0.017 µM,> 100 µM,> 100 µM,0.019 µM,CC(=O)Nc1cc(-c2nnc(SCc3cccc(C#N)c3)o2)ccn1,–
> 100 µM,> 100 µM,0.002 µM,> 100 µM,> 100 µM,0.017 µM,CC(=O)Nc1cc(-c2nnc(SCc3ccc(-c4ccccc4C#N)cc3)o2)ccn1,Non-toxic
> 100 µM,80 µM,0.051 µM,> 100 µM,> 100 µM,0.195 µM,Fc1cc(F)cc(-c2ccc(CSc3nnc(-c4ccc5c(c4)OCO5)o3)cc2)c1,–
> 100 µM,50 µM,0.005 µM,45 µM,> 100 µM,0.014 µM,COc1ccc(-c2ccc(CSc3nnc(-c4ccc5c(c4)OCO5)o3)cc2)c(C#N)c1,Non-toxic
> 100 µM,20 µM,0.007 µM,40 µM,> 100 µM,0.075 µM,COc1ccc(-c2ccc(CSc3nnc(-c4ccc5c(c4)OCO5)o3)cc2)cc1,–
> 100 µM,> 100 µM,0.015 µM,> 100 µM,> 100 µM,0.086 µM,O=[N+]([O-])c1cccc(-c2ccc(CSc3nnc(-c4ccc5c(c4)OCO5)o3)cc2)c1,–
> 100 µM,> 100 µM,0.004 µM,> 100 µM,> 100 µM,0.029 µM,N#Cc1cccc(-c2ccc(CSc3nnc(-c4ccc5c(c4)OCO5)o3)cc2)c1,–
> 100 µM,> 100 µM,0.003 µM,> 100 µM,> 100 µM,0.027 µM,O=[N+]([O-])c1ccccc1-c1ccc(CSc2nnc(-c3ccc4c(c3)OCO4)o2)cc1,–
> 100 µM,> 100 µM,0.051 µM,> 100 µM,> 100 µM,0.234 µM,c1ccc(-c2ccc(CSc3nnc(-c4ccc5c(c4)OCCO5)o3)cc2)cc1,–
> 100 µM,> 100 µM,0.035 µM,> 100 µM,> 100 µM,0.966 µM,Fc1cc(F)cc(-c2ccc(CSc3nnc(-c4ccc5c(c4)OCCO5)o3)cc2)c1,–
> 100 µM,> 100 µM,0.005 µM,> 100 µM,> 100 µM,0.032 µM,COc1ccc(-c2ccc(CSc3nnc(-c4ccc5c(c4)OCCO5)o3)cc2)c(C#N)c1,–
> 100 µM,> 100 µM,0.019 µM,> 100 µM,> 100 µM,0.127 µM,COc1ccc(-c2ccc(CSc3nnc(-c4ccc5c(c4)OCCO5)o3)cc2)cc1,–
> 100 µM,> 100 µM,0.195 µM,50 µM,> 100 µM,2 µM,N#Cc1ccc(-c2ccc(CSc3nnc(-c4ccc5c(c4)OCCO5)o3)cc2)cc1,–
> 100 µM,> 100 µM,0.015 µM,> 100 µM,> 100 µM,0.164 µM,O=[N+]([O-])c1cccc(-c2ccc(CSc3nnc(-c4ccc5c(c4)OCCO5)o3)cc2)c1,–
> 100 µM,> 100 µM,0.004 µM,> 100 µM,> 100 µM,0.09 µM,O=[N+]([O-])c1ccccc1-c1ccc(CSc2nnc(-c3ccc4c(c3)OCCO4)o2)cc1,–
> 100 µM,> 100 µM,0.009 µM,> 100 µM,> 100 µM,0.225 µM,N#Cc1cccc(-c2ccc(CSc3nnc(-c4ccc5c(c4)OCCO5)o3)cc2)c1,–
> 100 µM,> 100 µM,0.24 µM,> 100 µM,> 100 µM,0.176 µM,COc1ccc(-c2ccc(CSc3nnc(-c4ccncc4)o3)cc2)cc1,–
> 100 µM,> 100 µM,0.046 µM,60 µM,> 100 µM,0.084 µM,N#Cc1cccc(-c2ccc(CSc3nnc(-c4ccncc4)o3)cc2)c1,–
> 100 µM,> 100 µM,0.027 µM,5 µM,> 100 µM,0.164 µM,O=[N+]([O-])c1ccccc1-c1ccc(CSc2nnc(-c3ccncc3)o2)cc1,–
